Patent publication US7041677B2, “Use of monochloroflosequinan in the treatment of sexual dysfunction” (R.T. Alamo Ventures I, LLC, priority 2002, dated 2006)

Target: T1, PDE2 (Homo sapiens, UniProt O00408)
T1 construct: PDE2 partially purified from human platelets was used; from tissue; host or cells: human platelets
Test: PDE2 enzyme inhibition assay
Assay type: biochemical
Conditions: 1% DMSO vehicle
Description: In this example, a racemic mixture of monochloroflosequinan and the sulfone derivative of monochloroflosequinan were independently subjected to biochemical enzyme assays to determine their respective percent inhibition of a variety of phosphodiesterases (PDE1-PDE6). The methods used have been adapted from those described in the scientific literature, see Hidaka and Asano “Human blood platelet 3′:5′ cyclic nucleotide phosphodiesterase. Isolation of low-Km and high Km phosphodiesterase.” Biochem. Biophys. […] Unhydrolyzed cAMP was bound to AGI-X2 resin, and the remaining [^3H]adenosine in the aqueous phase was quantitated by scintillation counting. • PDE2: PDE2 partially purified from human platelets was used. […] Unhydrolyzed cAMP was bound to AGI-X2 resin, and the remaining [^3H]adenosine in the aqueous phase was quantitated by scintillation counting. • PDE3: PDE3 partially purified from human platelets was used. […] Unhydrolyzed cAMP was bound to AGI-X2 resin, and the remaining [^3H]adenosine in the aqueous phase was quantitated by scintillation counting. • PDE4: PDE4 partially purified from human U-937 pronocytic cells was used. […] Unhydrolyzed cAMP was bound to AGI-X2 resin, and the remaining [^3H]adenosine in the aqueous phase was quantitated by scintillation counting. • PDE5: PDE5 partially purified from human platelets was used. […]

T1 sequence (O00408 whole entry): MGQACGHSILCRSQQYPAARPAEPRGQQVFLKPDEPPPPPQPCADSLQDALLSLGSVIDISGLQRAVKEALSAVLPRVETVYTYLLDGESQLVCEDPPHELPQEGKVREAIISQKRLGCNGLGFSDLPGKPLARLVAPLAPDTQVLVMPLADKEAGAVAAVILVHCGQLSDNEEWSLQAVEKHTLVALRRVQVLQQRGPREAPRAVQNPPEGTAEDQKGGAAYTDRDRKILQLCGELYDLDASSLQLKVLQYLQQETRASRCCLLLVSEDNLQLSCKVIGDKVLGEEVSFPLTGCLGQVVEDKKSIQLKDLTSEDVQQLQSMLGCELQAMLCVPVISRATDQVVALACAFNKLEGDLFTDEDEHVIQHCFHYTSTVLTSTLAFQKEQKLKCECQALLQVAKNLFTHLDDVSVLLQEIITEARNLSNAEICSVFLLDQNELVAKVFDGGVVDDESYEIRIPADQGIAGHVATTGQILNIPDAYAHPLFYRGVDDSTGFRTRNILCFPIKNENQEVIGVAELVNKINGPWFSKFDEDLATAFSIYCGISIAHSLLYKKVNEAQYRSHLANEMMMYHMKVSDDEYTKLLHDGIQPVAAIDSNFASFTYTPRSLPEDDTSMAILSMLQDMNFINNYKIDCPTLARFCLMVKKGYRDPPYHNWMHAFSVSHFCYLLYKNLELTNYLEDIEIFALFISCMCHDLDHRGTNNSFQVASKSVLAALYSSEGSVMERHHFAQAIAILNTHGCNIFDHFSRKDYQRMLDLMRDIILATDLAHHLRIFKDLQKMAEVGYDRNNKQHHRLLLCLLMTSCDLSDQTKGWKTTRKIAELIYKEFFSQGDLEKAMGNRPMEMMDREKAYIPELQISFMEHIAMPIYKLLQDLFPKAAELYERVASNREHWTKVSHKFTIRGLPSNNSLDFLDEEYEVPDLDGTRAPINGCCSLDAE

Structure (SMILES)	inhibition of PDE2 (100 uM, 30° C.)	inhibition of PDE2 (200 μM, 25° C.)
Cn1cc([S+]([O-])CCl)c(=O)c2ccc(F)cc21 (racemic) [monochloroflosequinan, 3-chloromethylsulfinyl-7-fluoro-1-methyl-4-quinolone]	Significant inhibition	–
Cn1cc([S@+]([O-])CCl)c(=O)c2ccc(F)cc21 (single isomer, unassigned) [(+)-enantiomer of monochloroflosequinan]	–	greater than 50%
